Measurements published in patent US7196110B2, “N-substituted tricyclic 3-aminopyrazoles as inhibitors for the treatment of cell proliferative disorders” (Janssen Phamaceutica N.V., priority 2002, dated 2007).

Molecular target: T1, PDGF-receptor beta enzyme comprising the tyrosine kinase domain (Homo sapiens, UniProt P09619)
T1 construct: from amino acid 545 to 1106 of GenBank Access NO: AAA36427
Assay: Inhibition of PDGF-receptor kinase activity (cell-free, PLC1 peptide, 33P Flashplate)
Type: biochemical
Details: PDGF-R kinase activity; for inhibition at 10 µM: compound at 10 uM, read-out: Percent Inhibition @ 10 uM; for IC50: read-out: IC50
Summary of the method: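 Recombinant kinase domain (aa 545–1106) phosphorylated a biotinylated PLC1 peptide with 5 μM ATP plus 33P-γ-ATP, in Tris pH 8, MgCl2, Na3VO4 and 1 mM DTT, for 60 min at 30 °C. Retained 33P was counted after washing. IC50 is the concentration halving activity versus no-inhibitor reactions.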

T1 sequence (P09619 545-1106): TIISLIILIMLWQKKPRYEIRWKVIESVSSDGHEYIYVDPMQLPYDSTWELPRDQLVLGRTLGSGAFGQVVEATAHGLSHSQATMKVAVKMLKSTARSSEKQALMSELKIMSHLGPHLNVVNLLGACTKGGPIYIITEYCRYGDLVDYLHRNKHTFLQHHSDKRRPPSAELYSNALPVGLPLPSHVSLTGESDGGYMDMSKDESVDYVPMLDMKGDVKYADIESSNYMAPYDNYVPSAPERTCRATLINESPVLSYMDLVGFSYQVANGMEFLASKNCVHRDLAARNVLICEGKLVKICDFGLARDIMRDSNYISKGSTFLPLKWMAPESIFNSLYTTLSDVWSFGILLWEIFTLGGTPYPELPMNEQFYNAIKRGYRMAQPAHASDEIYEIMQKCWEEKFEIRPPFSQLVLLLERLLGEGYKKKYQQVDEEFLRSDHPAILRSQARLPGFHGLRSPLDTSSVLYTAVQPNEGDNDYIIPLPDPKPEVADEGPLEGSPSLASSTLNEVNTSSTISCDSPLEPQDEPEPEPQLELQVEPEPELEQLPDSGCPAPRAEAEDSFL

| SMILES | inhibition at 10 µM | IC50 |
| --- | --- | --- |
| COCCCOc1ccc2c(c1)Cc1c-2n[nH]c1Nc1ccc(F)cc1 [Compound 136, (4-Fluoro-phenyl)-[6-(3-methoxy-propoxy)-2,4-dihydro-indeno[1,2-c]pyrazol-3-yl]-amine] | 64.5% | 1330 nM |
| COCCCOc1ccc2c(c1)Cc1c-2n[nH]c1Nc1cccc(C(=O)OC)c1 [Compound 137, 3-[6-(3-Methoxy-propoxy)-2,4-dihydro-indeno[1,2-c]pyrazol-3-ylamino]-benzoic acid methyl ester] | 71% | 2110 nM |
| COCCCOc1ccc2c(c1)Cc1c-2n[nH]c1Nc1ccc(OC)cc1 [Compound 143, (4-Methoxy-phenyl)-[6-(3-methoxy-propoxy)-2,4-dihydro-indeno[1,2-c]pyrazol-3-yl]-amine] | 67% | 8120 nM |
| COc1cccc2c1Cc1c-2n[nH]c1Nc1ccc(F)cc1 [Compound 144, (4-Fluoro-phenyl)-(5-methoxy-2,4-dihydro-indeno[1,2-c]pyrazol-3-yl)-amine] | 96.5% | 836 nM |
| COc1ccc(Nc2[nH]nc3c2Cc2c(OC)cccc2-3)cc1 [Compound 145, (5-Methoxy-2,4-dihydro-indeno[1,2-c]pyrazol-3-yl)-(4-methoxy-phenyl)-amine] | 48.5% | 13900 nM |
| COc1ccc(OC)c(Nc2[nH]nc3c2Cc2c(OC)cccc2-3)c1 [Compound 147, (2,5-Dimethoxy-phenyl)-(5-methoxy-2,4-dihydro-indeno[1,2-c]pyrazol-3-yl)-amine] | 32% | 2980 nM |
| COc1ccc(Nc2[nH]nc3c2Cc2c(OC)cccc2-3)c(OC)c1 [Compound 148, (2,4-Dimethoxy-phenyl)-(5-methoxy-2,4-dihydro-indeno[1,2-c]pyrazol-3-yl)-amine] | 57% | 8600 nM |
| COc1cccc2c1Cc1c-2n[nH]c1Nc1cccc(OC(F)(F)F)c1 [Compound 149, (5-Methoxy-2,4-dihydro-indeno[1,2-c]pyrazol-3-yl)-(3-trifluoromethoxy-phenyl)-amine] | 27.5% | 8370 nM |

The remaining lines, values ahead:

| inhibition at 10 µM | IC50 | SMILES |
| --- | --- | --- |
| 79.5% | 301 nM | COCCCOc1ccc2c(c1)Cc1c-2n[nH]c1Nc1cccc(F)c1 [Compound 138, (3-Fluoro-phenyl)-[6-(3-methoxy-propoxy)-2,4-dihydro-indeno[1,2-c]pyrazol-3-yl]-amine] |
| 80% | 98.2 nM | COCCCOc1ccc2c(c1)Cc1c-2n[nH]c1Nc1cccc(OC)c1 [Compound 139, (3-Methoxy-phenyl)-[6-(3-methoxy-propoxy)-2,4-dihydro-indeno[1,2-c]pyrazol-3-yl]-amine] |
| 83.5% | 319 nM | COCCCOc1ccc2c(c1)Cc1c-2n[nH]c1Nc1cccc(Br)c1 [Compound 141, (3-Bromo-phenyl)-[6-(3-methoxy-propoxy)-2,4-dihydro-indeno[1,2-c]pyrazol-3-yl]-amine] |
| 82.5% | 453 nM | COCCCOc1ccc2c(c1)Cc1c-2n[nH]c1Nc1cccnc1 [Compound 142, [6-(3-Methoxy-propoxy)-2,4-dihydro-indeno[1,2-c]pyrazol-3-yl]-pyridin-3-yl-amine] |
| 78.5% | 160 nM | COc1cccc2c1Cc1c-2n[nH]c1Nc1cccnc1 [Compound 146, (5-Methoxy-2,4-dihydro-indeno[1,2-c]pyrazol-3-yl)-pyridin-3-yl-amine] |
| 85% | 823 nM | COc1cccc2c1Cc1c-2n[nH]c1Nc1cccc(C(F)(F)F)c1 [Compound 150, (5-Methoxy-2,4-dihydro-indeno[1,2-c]pyrazol-3-yl)-(3-trifluoromethyl-phenyl)-amine] |
| 79% | 91.8 nM | Fc1cccc(Nc2[nH]nc3c2Cc2cc(Br)ccc2-3)c1 [Compound 151, (6-Bromo-2,4-dihydro-indeno[1,2-c]pyrazol-3-yl)-(3-fluoro-phenyl)-amine] |
